Experimental data reported in US8062651B1, “Attractant pheromone for the male pink hibiscus mealybug, Maconellicoccus hirsutus (Green) (Homoptera: Pseudococcidae)” (The United States of America as represented by the …, priority 2004, dated 2011).

Key:
[1] = test system: male M. hirsutus; experiment: Field bioassay: sticky traps baited with rubber septa lures; format: in vivo, Maconellicoccus hirsutus; settings: (R)-lavandulol and (R)-maconelliol together, equal amount to ester, 1 and 10-μg doses, 1:5
Experimental: Field Bioassays: Gray halo-butyl rubber septa (5 mm, West Pharmaceutical Services, Kearney, Nebr.) loaded with 1 μg of RS, SR, RR, and SS binary diastereoisomeric mixtures of two candidate pheromone compounds placed on white sticky cards (Pherocon V traps, Trécé, Salinas, Calif.) were used for the field trails in Florida. Treatments were arranged in a randomized complete block design with nine replicates and about ˜1 m between traps within replicates. The cards were attached to the top of metal rods and placed one foot above hibiscus plants in a hedgerow. Cards were collected, put separately in transparent plastic bags, and brought back to the laboratory to count the trapped male PHM under a microscope. Comparisons were made between candidate synthetic mixtures and a blank control trap.
Field bioassays: Gray halo-butyl rubber septa (5 mm, West Pharmaceutical Services, Kearney, Nebr.) were soxhlet extracted with acetone for 48 hr and dried in a fume hood before use. The cleaned septa were loaded with the desired rates of candidate pheromone components in ˜40 μl of hexane solution, and used for field tests. The same amount of hexane was loaded on septa for the blank controls. […]

[2] = test system: male M. hirsutus antennae; settings: alcoholic moieties found in volatile extracts; Zhang et al. 2004; cited from earlier work
[3] = test system: male M. hirsutus antennae; experiment: Coupled GC-EAD of male antennae; design: species or system Maconellicoccus hirsutus; settings: GC-EAD of female airborne extracts
Experimental: Analytical Methods: The coupled gas chromatographic-electroantennographic detection (GC-EAD) system used was as previously described (Zhang, A., et al., J. Chem. Ecol., 23: […] (1997); Zhang, A., et al., J. Chem. Ecol., 25: 1221-1232 (1999); Zhang, A., and S. Polavarapu, J. Chem. Ecol., 29: 2153-2164 (2003)). A HP 6890 GC equipped with a 60 m×0.25-mm ID, 0.25-μm film-thickness DB-WAXETR (J&W Scientific Inc., Folsom, Calif.) capillary column in the splitless mode with hydrogen (1.4 ml/min) as carrier was used for analysis. The column temperature program was hold at 80° C. for 2 min, then heated to 250° C. at 15° C./min and held for 15 min. Electron impact mass spectrometry (EI mass) was conducted on a HP 6890 GC coupled to a HP 5973 Mass Selective Detector using an a 60 m×0.25-mm ID, 0.25-μm film-thickness DB-WAXETR capillary column at 50° C. for 2 min, then programmed to 230° C. at 15° C./min and held for 15 min or a 30 m×0.25-mm ID, 0.25-μm film-thickness DB-1 capillary column (50° C. for 2 min, then programmed to 300° C. at 15° C./min and held for 15 min) with helium as carrier gas. […] GC-Fourier transform infrared (FTIR) spectra were recorded on a HP GC coupled to a Bio-Rad IRD II infrared detector using a 60 m DB-WAXETR capillary column with conditions as described as above. […] NMR spectra were recorded in C6D6 solution on a Bruker QE Plus spectrometer at 300 MHz for ^1H. […]

SMILES	effect on attraction to the RS isomers [1]	antennal activity [2]	EAD response of male M. hirsutus antennae [3]
C=C(C)[C@H](CO)CC=C(C)C [(R)-lavandulol, (R)-(−)-lavandulol, reference compound]	significantly reduced attraction	did not elicited any antennal activity	–
CC(C)=C1C[C@@H](CO)C1(C)C [(R)-maconelliol, [(R)-(−)-2,2-Dimethyl-3-(1-methylethylidene)cyclobutyl]methanol]	significantly reduced attraction	did not elicited any antennal activity	–
C=C(C)[C@@H](CC=C(C)C)COC(=O)[C@@H](C)CC [compound 1, (R)-2-Isopropenyl-5-methylhex-4-enyl (S)-2-methylbutanoate]	–	–	consistently responded
CC[C@H](C)C(=O)OC[C@@H]1CC(=C(C)C)C1(C)C [compound 2, [(R)-2,2-Dimethyl-3-(1-methylethylidene)cyclobutyl]methyl (S)-2-methylbutanoate]	–	–	consistently responded
